Laboratory results as given in publication PMC2804908 (Journal of medicinal chemistry, 2010).
Where “and” joins values, the source holds several entries; their conditions need not be identical. Identical values can stand only once. Like-named read-outs stand apart in the source and are kept apart here. Each block holds one compound with its values, some of them ahead of it.

Assays:
hP2Y14 receptor = target: T1, hP2Y14 receptor (Homo sapiens, UniProt Q15391); test: P2Y14 receptor-inhibited accumulation of cAMP; format: cell-based; settings: for agonist activity at the P2Y14 receptor (in words): HEK-293 cells expressing hP2Y14; for fold selectivity for P2Y14 in comparison to P2Y6: ratio of EC50 at hP2Y6 to EC50 at hP2Y14; for fold more potent than UDP 3 at the P2Y14 receptor / fold less potent than UDP 3 at the P2Y14 receptor: relative to compound 3; for EC50: read-out: EC50, hP2Y14, inhibition of cAMP formation, HEK-293 cells stably transfected with hP2Y14, mean ± standard error, N = 3, NE = no effect at 10 μM
T1 sequence (Q15391 1-338): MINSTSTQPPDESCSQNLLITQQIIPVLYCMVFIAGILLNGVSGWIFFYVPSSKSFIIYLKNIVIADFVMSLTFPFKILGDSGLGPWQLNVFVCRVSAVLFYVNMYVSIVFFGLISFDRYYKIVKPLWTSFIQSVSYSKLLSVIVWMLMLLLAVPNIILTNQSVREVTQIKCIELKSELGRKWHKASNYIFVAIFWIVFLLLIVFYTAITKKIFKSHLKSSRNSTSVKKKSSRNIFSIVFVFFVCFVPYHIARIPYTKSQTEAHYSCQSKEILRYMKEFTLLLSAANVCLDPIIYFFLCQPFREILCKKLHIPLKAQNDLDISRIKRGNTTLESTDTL

hP2Y6 receptor [1] = target: T2, hP2Y6 receptor (Homo sapiens, UniProt Q15077); test: P2Y6 receptor-stimulated PLC activity; format: cell-based; settings: for agonist activity at the P2Y6 receptor (in words): at the concentrations tested
T2 sequence (Q15077 whole entry): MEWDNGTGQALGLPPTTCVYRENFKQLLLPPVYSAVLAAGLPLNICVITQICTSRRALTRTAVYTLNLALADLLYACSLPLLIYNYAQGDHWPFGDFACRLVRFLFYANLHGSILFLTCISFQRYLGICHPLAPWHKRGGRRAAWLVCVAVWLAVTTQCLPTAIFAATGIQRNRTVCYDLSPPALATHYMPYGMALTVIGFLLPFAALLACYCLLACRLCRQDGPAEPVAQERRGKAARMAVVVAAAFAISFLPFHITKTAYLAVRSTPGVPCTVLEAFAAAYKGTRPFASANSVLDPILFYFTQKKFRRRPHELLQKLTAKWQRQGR

hP2Y6 receptor [2] = target: T2, hP2Y6 receptor; settings: read-out: EC50, hP2Y6; stimulation of PLC, hP2Y6 in 1321N1 cells; footnote b; NE = no effect at 10 μM; ref Maruoka et al. 15, Besada et al. 17, Ko et al. 18; cited from earlier work

- agonist activity at the P2Y14 receptor (in words) (hP2Y14 receptor): moderately potent agonists
- agonist activity at the P2Y14 receptor (in words) (hP2Y14 receptor; listed as UDP): full agonist
SMILES: O=c1ccn([C@@H]2O[C@H](COP(=O)(O)OP(=O)(O)O)[C@@H](O)[C@H]2O)c(=O)[nH]1 [Compound 3, uridine-5′-diphosphate, reference compound]

- fold selectivity for P2Y14 in comparison to P2Y6 (hP2Y14 receptor): 233 fold
- fold more potent than UDP 3 at the P2Y14 receptor (hP2Y14 receptor): 83 fold
SMILES: O=c1ccn([C@@H]2O[C@H](COP(=O)(O)OP(=O)(O)O)[C@@H](O)[C@H]2O)c(=S)[nH]1 [Compound 4, 2-thio-UDP]

- agonist activity at the P2Y14 receptor (in words) (hP2Y14 receptor): moderately potent agonists
SMILES: O=c1[nH]c(=S)ccn1[C@@H]1O[C@H](COP(=O)(O)OP(=O)(O)O)[C@@H](O)[C@H]1O [Compound 5, 4-thio-UDP]

- fold less potent than UDP 3 at the P2Y14 receptor (hP2Y14 receptor): 20 fold
SMILES: CO/N=c1\ccn([C@@H]2O[C@H](COP(=O)(O)OP(=O)(O)O)[C@@H](O)[C@H]2O)c(=O)[nH]1.Cl [Compound 7, N^4-OCH3-CDP]

- EC50 (hP2Y14 receptor): > 10 µM
- EC50 (hP2Y6 receptor [1]; read-out: EC50, hP2Y6, stimulation of PLC, hP2Y6 stably expressed in 1321N1 cells, mean ± standard error, N = 3, >10,000 = <50% effect at 10 μM, NE = no effect at 10 μM): > 10 µM
SMILES: O=c1ccn([C@H]2[C@H](O)[C@H](O)[C@@]3(COP(=O)(O)OP(=O)(O)O)C[C@H]23)c(=O)[nH]1 [Compound 8, (N)-methanocarba UDP]

- EC50 (hP2Y14 receptor): > 10 µM
SMILES: O=c1ccn([C@@]23C[C@H]2[C@H](COP(=O)(O)OP(=O)(O)O)[C@@H](O)[C@H]3O)c(=O)[nH]1 [Compound 9, (S)-methanocarba UDP]

- agonist activity at the P2Y6 receptor (in words) (hP2Y6 receptor [1]): did not activate
SMILES: O=c1ccn([C@@H]2O[C@H](COP(=O)(O)C(F)(F)P(=O)(O)O)[C@@H](O)[C@H]2O)c(=O)[nH]1 [Compound 12, α,β-difluoromethylene UDP]
- EC50 (hP2Y6 receptor [2]): > 10 µM

- fold selectivity for P2Y14 in comparison to P2Y6 (hP2Y14 receptor): not selective
SMILES: O=c1[nH]c(=O)n([C@@H]2O[C@H](COP(=O)(O)C(F)(F)P(=O)(O)O)[C@@H](O)[C@H]2O)cc1I [Compound 13, 5-I-Up-CF2-p]

SMILES: COP(=O)(O)OP(=O)(O)OC[C@H]1O[C@@H](n2ccc(=O)[nH]c2=O)[C@H](O)[C@@H]1O.N [Compound 14, Diphosphoric acid 1-β-methyl ester 2-(uridine-5′-yl)ester]
- agonist activity at the P2Y14 receptor (in words) (hP2Y14 receptor): weakly activated
- agonist activity at the P2Y6 receptor (in words) (hP2Y6 receptor [1]): inactive

SMILES: COP(=O)(O)OP(=O)(O)OC[C@H]1O[C@@H](n2ccc(=O)[nH]c2=S)[C@H](O)[C@@H]1O.N [Compound 15, Diphosphoric acid 1-β-methyl ester 2-(2-thiouridine-5′-yl)ester]
- fold selectivity for P2Y14 in comparison to P2Y6 (hP2Y14 receptor): > 180 fold

SMILES: COP(=O)(O)OP(=O)(O)OC[C@H]1O[C@@H](n2ccc(=S)[nH]c2=O)[C@H](O)[C@@H]1O [Compound 16, Diphosphoric acid 1-β-methyl ester 2-(4-thiouridine-5′-yl)ester]
- EC50 (hP2Y14 receptor): > 10 µM

SMILES: CCOP(=O)(O)OP(=O)(O)OC[C@H]1O[C@@H](n2ccc(=O)[nH]c2=S)[C@H](O)[C@@H]1O.N [Compound 17, Diphosphoric acid 1-β-ethyl ester 2-(2-thiouridine-5′-yl)ester]
- fold selectivity for P2Y14 in comparison to P2Y6 (hP2Y14 receptor): > 200 fold and > 250 fold

- fold selectivity for P2Y14 in comparison to P2Y6 (hP2Y14 receptor): > 200 fold
SMILES: CCCOP(=O)(O)OP(=O)(O)OC[C@H]1O[C@@H](n2ccc(=O)[nH]c2=S)[C@H](O)[C@@H]1O.N [Compound 18, Diphosphoric acid 1-β-propyl ester 2-(2-thiouridine-5′-yl)ester]

SMILES: N.N#CCCOP(=O)(O)OP(=O)(O)OC[C@H]1O[C@@H](n2ccc(=O)[nH]c2=O)[C@H](O)[C@@H]1O [Compound 19, Diphosphoric acid 1-β-(2-cyanoethyl)ester 2-(uridine-5′-yl)ester]
- agonist activity at the P2Y14 receptor (in words) (hP2Y14 receptor): poorly tolerated

- fold less potent than UDP 3 at the P2Y14 receptor (hP2Y14 receptor): 2 fold
SMILES: C#CCCOP(=O)(O)OP(=O)(O)OC[C@H]1O[C@@H](n2ccc(=O)[nH]c2=O)[C@H](O)[C@@H]1O.CCN(CC)CC [Compound 20, Diphosphoric acid 1-β-(3-butynyl)ester 2-(uridine-5′-yl)ester]

- fold selectivity for P2Y14 in comparison to P2Y6 (hP2Y14 receptor): > 900 fold
- fold more potent than UDP 3 at the P2Y14 receptor (hP2Y14 receptor): 16 fold
SMILES: C#CCCOP(=O)(O)OP(=O)(O)OC[C@H]1O[C@@H](n2ccc(=O)[nH]c2=S)[C@H](O)[C@@H]1O.CCN(CC)CC [Compound 21, Diphosphoric acid 1-β-(3-butynyl) ester 2-(2-thiouridine-5′-yl)ester]

- fold less potent than UDP 3 at the P2Y14 receptor (hP2Y14 receptor): 10 fold
SMILES: N.O=c1ccn([C@@H]2O[C@H](COP(=O)(O)OP(=O)(O)OCC(O)CO)[C@@H](O)[C@H]2O)c(=O)[nH]1 (stereo partly drawn) [Compound 22, Diphosphoric acid 1-α-glycerol ester 2-(uridine-5′-yl)ester]

SMILES: CC(C)(C)OP(=O)(O)OP(=O)(O)OC[C@H]1O[C@@H](n2ccc(=O)[nH]c2=O)[C@H](O)[C@@H]1O [Compound 24, Diphosphoric acid 1-β-tert-butyl ester 2-(uridine-5′-yl)ester]
- EC50 (hP2Y6 receptor [1]): 10.8 µM

- fold more potent than UDPG at the P2Y14 receptor (hP2Y14 receptor; relative to UDPG 1): 11 fold
- fold more potent than the corresponding 2-oxo analogue 24 at the P2Y14 receptor (hP2Y14 receptor; relative to compound 24): 8 fold
SMILES: CC(C)(C)OP(=O)(O)OP(=O)(O)OC[C@H]1O[C@@H](n2ccc(=O)[nH]c2=S)[C@H](O)[C@@H]1O.N [Compound 25, Diphosphoric acid 1-β-tert-butyl ester 2-(2-thiouridine-5′-yl)ester]
